Laboratory results: US20090203731A1, “TREATMENT OF DEPRESSION AND OTHER AFFECTIVE DISORDERS” (H. Lundbeck A/S, priority 2003, published 2009)

Assays:
Type in all cases: in vivo
[1] = test system: rat chronic mild stress (CMS) model of depression; experiment: rat chronic mild stress (CMS) model of depression, sucrose consumption; conditions: male Wistar rats
Excerpt: The rat chronic mild stress (CMS) model of depression has a high degree of predictive validity for antidepressant activity (Willner, 1997, Psychopharmacol. 134, 319-329). Furthermore, the procedure is an appropriate model to study onset of antidepressant action in animals (C. Sánchez et al., 2003, Behavioural Pharmacology 14, 465-470). The principle of the model is based on the relation between stress and affective disorders. Rats exposed to chronic stress will show a reduced sensitivity to rewards (e.g. a palatable sucrose solution).
Male Wistar rats (Gorzkowska, Warsaw) were brought into the laboratory two months before the start of the experiment. The animals were singly housed with food and water freely available, and maintained on a 12-h light/dark cycle at a temperature of 22±2° C., except as described below.
The animals were first trained to consume a 1% sucrose solution; training consisted of eight 1 h baseline tests in which sucrose was presented, in the home cage, following 14 h food and water deprivation; intake was measured by weighing pre-weighed bottles containing the sucrose solution, at the end of the test. Subsequently, sucrose consumption was monitored, under similar conditions, throughout the whole experiment. […] Body weights were assessed a baseline and by the end of drug treatment.

[2] = test system: 5-HTP-induced behaviour in mice; experiment: mouse 5-HTP potentiation test (potentiation of 5-HTP-induced behaviour); conditions: gaboxadol 2.5 mg/kg with escitalopram 0.5 to 0.025 mg/kg, s.c., 30 min before i.v. 5-HTP 100 mg/kg, male NMRI/BOM mice
Excerpt: (§1) In order to modulate the activity of systems responsible for antidepressant activity, we have characterized the interaction between gaboxadol and escitalopram (an SSRI) in a behavioral model of serotonin reuptake inhibition, i.e. the mouse 5-HTP potentiation test, and a model that is predictive of antidepressant activity, i.e. the mouse forced swim test (cf. C. Sánchez et al., 2003, Psychopharmacology 167, 353-362).
(§2) Male NMRI/BOM mice (18-25 g; Bomholtgaard, Denmark) were used. The mice were housed in plastic cages (35×30×12 cm), 10 animals in each, and habituated to the animal facilities for at least a week before test. The room temperature (21±2° C.), relative humidity (55±5%), and air exchange (16 times per h) were automatically controlled. The animals had free access to commercial food pellets and tap water before test.
The test procedure for studies in mice is described in detail by Hyttel et al., 1992, J. Neural. Transm. Gen. Sect. 88, 157-60. Briefly, 30 min after subcutaneous (s.c.) administration of test compound, mice were given intravenous (i.v.) 5-HTP (100 mg/kg). Thereafter the animals were evaluated in their home cage during a 15-min observation period with respect to stereotypy (lateral head movements), tremor, and hind limb abduction. One point was given for each symptom being present. A total of 8-16 mice were used per dose. Inhibition of forced swimming-induced immobility.

[3] = test system: forced swimming-induced immobility in mice; experiment: mouse forced swim test (inhibition of forced swimming-induced immobility); conditions: male NMRI/BOM mice
Excerpt: as §1, §2
A mouse that is forced to swim in a spatially constrained container will exert a characteristic immobile posture. Pretreatment with an antidepressant will counteract this effect. The test was conducted as described in detail by Sánchez and Meier (Psychopharmacol. 129, 197-205, 1997). Briefly, a fully automated test system with 6 swim units (2000 ml glass jars filled with 1200 ml soiled water (23-25° C.) in which a mouse had been placed previously) was used. […] The accumulated duration of immobility was measured during the last 3 min. […]

In the case of `Oc1noc2c1CCNC2` [gaboxadol, Gaboxadol], the “effect in the rat chronic mild stress model at 2.5 mg/kg per day” value ([1]; 2.5 mg/kg per day, intraperitoneal) is reported as “clear and significant effect”, the “anti-depressant-like effect in the rat chronic mild stress model” value ([1]; twice daily intraperitoneal injections for five weeks) is reported as “significant anti-depressant-like effect” and the “potentiation of the acute effects of escitalopram in the 5-HTP potentiation test” value [2] is reported as “strongly potentiated the acute effects of escitalopram”. The “activity by itself in the forced swim test” value ([3]; gaboxadol 2.5 mg/kg alone, 30 min before test) was “not active by itself” and the “potentiation of the antidepressant-like effect of escitalopram in the forced swim test” value ([3]; gaboxadol 2.5 mg/kg with escitalopram 2.5 and 5 mg/kg) was “potentiated the antidepressant-like effect of escitalopram (2.5 and 5 mg/kg) significantly”.
